Test [1] has as its target T1, LK35.2-hPD-L1 cells / PE-labeled PD-1-Ig (Homo sapiens, UniProt Q9NZQ7).
T1 construct: expressed in transfected cells; host or cells: LK35.2 mouse B cell line
The experiment in a line: LK35.2-hPD-L1 cell binding high-content screening assay. The class given is cell-based. An outline of the steps:
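Binding of PE-conjugated human PD-1-Ig (1 nM final) to human PD-L1 stably expressed on a mouse B-cell line (LK35.2) was measured by high-content imaging after washes. Compound and labeled PD-1-Ig were co-incubated 1 h at 37 °C with cells in RPMI/10% FCS.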

The next test deals with T2, Human PD-L1/PD-1 (Homo sapiens, UniProt Q9NZQ7).
T2 construct: made in house; host or cells: HEK293T
T2 sequence (Q9NZQ7 with tags, fused parts or gaps): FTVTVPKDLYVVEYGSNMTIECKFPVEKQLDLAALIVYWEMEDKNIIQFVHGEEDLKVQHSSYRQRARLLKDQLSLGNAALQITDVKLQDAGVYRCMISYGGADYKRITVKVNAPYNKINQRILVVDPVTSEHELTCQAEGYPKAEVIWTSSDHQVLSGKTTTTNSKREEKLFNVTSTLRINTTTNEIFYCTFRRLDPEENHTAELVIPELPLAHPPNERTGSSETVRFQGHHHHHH
The experiment in a line: HTRF PD-1-Ig/PD-L1-His binding assay (human PD-L1). The conditions noted are these: cluster symbol; read-out: HTRF IC50 cluster. In outline: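 Soluble PD-1-Ig binding to PD-L1-His measured by HTRF in dPBS with 0.1% BSA and 0.05% Tween-20. Detection used europium cryptate anti-Ig antibody (1 nM final) and APC anti-His antibody (20 nM final) added on top of the binding reaction.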

[2] abbreviates: cell binding assay, cell line not given, cluster symbol, read-out: CBA IC50 cluster.
Where [3] appears, read: cluster symbol, cell line of CBA not given (LK35.2-hPD-L1 or 293T-hPD-L1), read-out: CBA IC50 cluster.

The structures appear in SMILES notation. Like-named read-outs stand apart in the source and are kept apart here. Starred links: 1 amine or outer side, 2 acyl side, 3 side chain; linkers in the order of their positions; H or OH if unused. Positions of bridges follow the written chain, without caps; N, C: chain ends. Non-standard residues stand in square brackets, D forms with d. Residues, ends and D or L forms follow the SMILES beside them. ξ: configuration not given here. X9 = O=C([C@@H]1C[C@@H](Oc2nc3ccccc3cc2Br)CN1[*:1])[*:2]; Trp(5-Cl) = N[C@@H](Cc1c[nH]c2ccc(Cl)cc12)C(=O)O; Phe(4-CN) = N#Cc1ccc(C[C@H](N)C(=O)O)cc1; Phe(4-Cl) = N[C@@H](Cc1ccc(Cl)cc1)C(=O)O; Bta = N[C@@H](Cc1csc2ccccc12)C(=O)O; ξPro(4R-OH) = O=C(O)C1C[C@@H](O)CN1; Hyp = O=C(O)[C@@H]1C[C@@H](O)CN1; NMeF = CN[C@@H](Cc1ccccc1)C(=O)O; NMehSer = CN[C@@H](CCO)C(=O)O; NMeNle = CCCC[C@H](NC)C(=O)O; NMeM = CN[C@@H](CCSC)C(=O)O; NMeA = CN[C@@H](C)C(=O)O; Dab = NCC[C@H](N)C(=O)O; Dap = NC[C@H](N)C(=O)O; ξC = NC(CS)C(=O)O; Sar = CNCC(=O)O Where only a bound is given, the exact number is not on record here.

T1 sequence (Q9NZQ7 19-290): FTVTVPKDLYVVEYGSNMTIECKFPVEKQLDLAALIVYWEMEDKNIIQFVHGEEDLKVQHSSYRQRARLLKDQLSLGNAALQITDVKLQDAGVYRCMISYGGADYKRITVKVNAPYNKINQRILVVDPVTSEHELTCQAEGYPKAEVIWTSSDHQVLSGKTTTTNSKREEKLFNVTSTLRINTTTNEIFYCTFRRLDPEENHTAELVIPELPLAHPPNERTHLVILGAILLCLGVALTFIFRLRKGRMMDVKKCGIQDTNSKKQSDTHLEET

For `CCCC[C@H]1C(=O)N(C)[C@@H](CCCC)C(=O)N[C@@H](CC(C)C)C(=O)N[C@H](C(=O)NCC(N)=O)CSCC(=O)N[C@@H](Cc2ccc(O)cc2)C(=O)N(C)[C@@H](C)C(=O)N[C@@H](CC(N)=O)C(=O)N2CCC[C@H]2C(=O)N[C@@H](CO)C(=O)N[C@@H](CCC(=O)O)C(=O)N2C[C@H](O)C[C@H]2C(=O)N[C@@H](Cc2c[nH]c3ccccc23)C(=O)N[C@@H](CCN)C(=O)N[C@@H](Cc2c[nH]c3ccccc23)C(=O)N1C` [Example 5074] ({CH2CO}-Y[NMeA]NPSE[Hyp]W[Dab]W[NMeNle][NMeNle]LCG-NH2; thioether N-14), the figures for the IC50 (in test [1] (setting [2]); on Human PD-L1/PD-1) were 0.158 to 4.71 nM and 0.385 to 6.74 nM, respectively.
As for `CCCC[C@H]1C(=O)N(C)[C@@H](CCCC)C(=O)N[C@@H](CCCNC(=N)N)C(=O)N[C@H](C(=O)NCC(N)=O)CSCC(=O)N[C@@H](Cc2ccc(C#N)cc2)C(=O)N(C)[C@@H](C)C(=O)N[C@@H](CC(N)=O)C(=O)N2CCC[C@H]2C(=O)N[C@@H](Cc2cnc[nH]2)C(=O)N[C@@H](CC(C)C)C(=O)N2C[C@H](O)C[C@H]2C(=O)N[C@@H](Cc2c[nH]c3ccccc23)C(=O)N[C@@H](CO)C(=O)N[C@@H](Cc2c[nH]c3ccccc23)C(=O)N1C` [Example 7046] ({CH2CO}-[Phe(4-CN)][NMeA]NPHL[Hyp]WSW[NMeNle][NMeNle]RCG-NH2; thioether N-14), the concentration for half-maximal inhibition (IC50) in test [1] (setting [2]) was 0.158 to 4.71 nM; on Human PD-L1/PD-1, 0.385 to 6.74 nM.
Consider `CCCC[C@H]1C(=O)N(C)[C@@H](CCCC)C(=O)N[C@@H](CO)C(=O)N[C@H](C(=O)NCC(N)=O)CSCC(=O)N[C@@H](Cc2ccc(O)cc2)C(=O)N(C)[C@@H](C)C(=O)N[C@@H](CCN)C(=O)N2CCC[C@H]2C(=O)N[C@@H](Cc2c[nH]cn2)C(=O)N[C@@H](CCC(=O)O)C(=O)N2C[C@H](O)C[C@H]2C(=O)N[C@@H](Cc2c[nH]c3ccccc23)C(=O)N[C@@H](C(C)C)C(=O)N[C@@H](Cc2c[nH]c3ccccc23)C(=O)N1C` [Example 5097] ({CH2CO}-Y[NMeA][Dab]PHE[Hyp]WVW[NMeNle][NMeNle]SCG-NH2; thioether N-14), for which the IC50 is 74.3 nM in test [1] (cell binding assay, cell line not given, value given instead of cluster, read-out: CBA IC50 value) and 6.76 to 30.3 nM on Human PD-L1/PD-1.
As to `CCCC[C@H]1C(=O)N(C)CC(=O)N[C@@H](CC(=O)O)C(=O)N[C@@H](C(C)C)C(=O)N(C)[C@@H](Cc2ccccc2)C(=O)N[C@@H](Cc2ccc(O)cc2)C(=O)N(C)CC(=O)N[C@@H](Cc2c[nH]c3ccccc23)C(=O)N[C@@H](Cc2ccc(Cl)cc2)C(=O)N[C@@H](CC(C)C)C(=O)N[C@H](C(=O)NCC(N)=O)CSCC(=O)N[C@@H](Cc2ccccc2)C(=O)N(C)[C@@H](Cc2ccccc2)C(=O)N1C` [Example 3099] ({CH2CO}-F[NMeF][NMeNle][Sar]DV[NMeF]Y[Sar]W[Phe(4-Cl)]LCG-NH2; thioether N-13), the results for the IC50 (in test [1] (setting [3]); at Human PD-L1/PD-1) were above 74.3 nM and above 30.5 nM, respectively.
Take `CCCC[C@H]1C(=O)N(C)[C@@H](CCCC)C(=O)N[C@@H](CCN)C(=O)N[C@H](C(=O)NCC(N)=O)CSCC(=O)N[C@@H](Cc2ccc(O)cc2)C(=O)N(C)[C@@H](C)C(=O)N[C@@H](CC(=O)O)C(=O)N2CCC[C@H]2C(=O)N[C@@H](Cc2cnc[nH]2)C(=O)N[C@@H](CCC(=O)O)C(=O)N2C[C@H](O)C[C@H]2C(=O)N[C@@H](Cc2c[nH]c3ccccc23)C(=O)N[C@@H](CO)C(=O)N[C@@H](Cc2c[nH]c3ccccc23)C(=O)N1C` [Example 5029] ({CH2CO}-Y[NMeA]DPHE[Hyp]WSW[NMeNle][NMeNle][Dab]CG-NH2; thioether N-14): the half-inhibitory concentration (IC50) in test [1] (setting [2]) is 0.158 to 4.71 nM; at Human PD-L1/PD-1, 0.385 to 6.74 nM.
For the compound `CCCC[C@H]1C(=O)N(C)[C@@H](CCCC)C(=O)N[C@@H](CCCNC(=N)N)C(=O)N[C@H](C(=O)NCC(N)=O)CSCC(=O)N[C@@H](Cc2ccccc2)C(=O)N(C)[C@@H](C)C(=O)N[C@@H](CC(N)=O)C(=O)N2CCC[C@H]2C(=O)N[C@@H](Cc2cnc[nH]2)C(=O)N[C@@H](CC(C)C)C(=O)N(C)CC(=O)N[C@@H](Cc2c[nH]c3ccc(Cl)cc23)C(=O)N[C@@H](CO)C(=O)N[C@@H](Cc2c[nH]c3ccc(Cl)cc23)C(=O)N1C` [Example 1024] ({CH2CO}-F[NMeA]NPHL[Sar][Trp(5-Cl)]S[Trp(5-Cl)][NMeNle][NMeNle]RCG-NH2; thioether N-14), the concentration for half-maximal inhibition (IC50) is above 74.3 nM in test [1] (setting [3]) and above 30.5 nM at Human PD-L1/PD-1.
In the case of `CCCC[C@H]1C(=O)N2CCC[C@@H]2C(=O)N[C@@H](CCCN)C(=O)N[C@H](C(=O)NCC(N)=O)CSCC(=O)N[C@@H](Cc2ccc(O)cc2)C(=O)N(C)[C@@H](C)C(=O)N[C@@H](CC(N)=O)C(=O)N2CCC[C@H]2C(=O)N[C@@H](Cc2cnc[nH]2)C(=O)N[C@@H](CC(C)C)C(=O)N2CCC[C@H]2C(=O)N[C@@H](Cc2c[nH]c3ccccc23)C(=O)N[C@@H](CO)C(=O)N[C@@H](Cc2c[nH]c3ccccc23)C(=O)N1C` [Example 5011] (HELM PEPTIDE1{[O=C(C[*:3])[*:2]].Y.[meA].N.P.H.L.P.W.S.W.[CCCC[C@@H](C(=O)[*:2])N(C)[*:1]].[dP].[Orn].C.G.[am]}$PEPTIDE1,PEPTIDE1,1:R3-15:R3$$$V2.0), the IC50 was 4.78 to 72.9 nM in test [1] (setting [2]) and 6.76 to 30.3 nM on Human PD-L1/PD-1.
Turning to `CCCC[C@H]1C(=O)N(C)[C@@H](CCCC)C(=O)N[C@@H](CC(=O)O)C(=O)N[C@H](C(=O)NCC(N)=O)CSCC(=O)N[C@@H](Cc2ccc(O)cc2)C(=O)N(C)[C@@H](C)C(=O)N[C@@H](CC(=O)O)C(=O)N2CCC[C@H]2C(=O)N[C@@H](Cc2c[nH]cn2)C(=O)N[C@@H](CCCNC(=N)N)C(=O)N2C[C@H](O)CC2C(=O)N[C@@H](Cc2c[nH]c3ccccc23)C(=O)N[C@@H](CCCNC(=N)N)C(=O)N[C@@H](Cc2c[nH]c3ccccc23)C(=O)N1C` (stereo partly drawn) [Example 1203] ({CH2CO}-Y[NMeA]DPHR[ξPro(4R-OH)]WRW[NMeNle][NMeNle]DCG-NH2; thioether N-14), the values for the IC50 (in test [1] (setting [3]); at Human PD-L1/PD-1) were 0.158 to 4.71 nM and 6.76 to 30.3 nM, respectively.
`CCCC[C@H]1C(=O)N(C)[C@@H](CCCC)C(=O)N[C@@H](CCCNC(=N)N)C(=O)N[C@H](C(=O)NCC(N)=O)CSCC(=O)N[C@@H](Cc2ccc(O)cc2)C(=O)N(C)[C@@H](C)C(=O)N[C@@H](CC(N)=O)C(=O)N2CCC[C@H]2C(=O)N[C@@H](Cc2cnc[nH]2)C(=O)N[C@@H](CCC(=O)O)C(=O)N2CCC[C@H]2C(=O)N[C@@H](Cc2c[nH]c3ccccc23)C(=O)N[C@@H](CO)C(=O)N[C@@H](Cc2csc3ccccc23)C(=O)N1C` [Example 1115] ({CH2CO}-Y[NMeA]NPHEPWS[Bta][NMeNle][NMeNle]RCG-NH2; thioether N-14): the IC50 in test [1] (setting [3]) lay within 0.158 to 4.71 nM; on Human PD-L1/PD-1 it was 0.385 to 6.74 nM.
In the case of `CCCC[C@H]1C(=O)N(C)[C@@H](CCCC)C(=O)N[C@@H](CCCNC(=N)N)C(=O)NC(C(=O)N[C@@H](CO)C(N)=O)CSCC(=O)N[C@@H](Cc2ccc(O)cc2)C(=O)N(C)[C@@H](C)C(=O)N[C@@H](CC(N)=O)C(=O)N2CCC[C@H]2C(=O)N[C@@H](Cc2cnc[nH]2)C(=O)N[C@@H](CC(C)C)C(=O)N2CCC[C@H]2C(=O)N[C@@H](Cc2c[nH]c3ccccc23)C(=O)N[C@@H](CO)C(=O)N[C@@H](Cc2c[nH]c3ccccc23)C(=O)N1C` (some centres unmarked) [Example 9037] ({CH2CO}-Y[NMeA]NPHLPWSW[NMeNle][NMeNle]R[ξC]S-NH2; thioether N-14), the results for the IC50 (in test [1] (setting [2]); on Human PD-L1/PD-1) were 0.158 to 4.71 nM and 6.76 to 30.3 nM, respectively.
In the same order, the values of `CCCC[C@H]1C(=O)N(C)[C@@H](CCCC)C(=O)N[C@@H](CC(C)C)C(=O)N[C@H](C(=O)NCC(N)=O)CSCC(=O)N[C@@H](Cc2ccc(O)cc2)C(=O)N(C)[C@@H](C)C(=O)N[C@@H](CC(N)=O)C(=O)N2CCC[C@H]2C(=O)N[C@@H](CN)C(=O)N[C@@H](CC(C)C)C(=O)N2C[C@H](Oc3nc4ccccc4cc3Br)C[C@H]2C(=O)N[C@@H](Cc2c[nH]c3ccccc23)C(=O)N[C@@H](CCN)C(=O)N[C@@H](Cc2c[nH]c3ccccc23)C(=O)N1C` [Example 6049] ({CH2CO}-Y[NMeA]NP[Dap]L[X9]W[Dab]W[NMeNle][NMeNle]LCG-NH2; thioether N-14) are 4.78 to 72.9 nM and 0.385 to 6.74 nM.
In the same order, the values of `CCCC[C@H]1C(=O)N[C@@H](CCCNC(=N)N)C(=O)NC(C(=O)NCC(N)=O)CSCC(=O)N[C@@H](Cc2ccc(O)cc2)C(=O)N(C)[C@@H](C)C(=O)N[C@@H](CC(=O)O)C(=O)N2CCC[C@H]2C(=O)N[C@@H](Cc2cnc[nH]2)C(=O)N[C@@H](CC(C)C)C(=O)N2CCC[C@H]2C(=O)N[C@@H](Cc2c[nH]c3ccccc23)C(=O)N[C@@H](CO)C(=O)N[C@@H](Cc2c[nH]c3ccccc23)C(=O)N(C)[C@@H](CCOC)C(=O)N1C` (some centres unmarked) [Example 9010] ({CH2CO}-Y[NMeA]DPHLPWSW[NMehSer](Me)[NMeNle]R[ξC]G-NH2; thioether N-14) are 4.78 to 72.9 nM and 6.76 to 30.3 nM.
In the same order, the values of `CCCC[C@H]1C(=O)N[C@@H](CCCNC(=N)N)C(=O)NC(C(=O)NCC(N)=O)CSCC(=O)N[C@@H](Cc2ccc(O)cc2)C(=O)N(C)[C@@H](C)C(=O)N[C@@H](CC(N)=O)C(=O)N2CCC[C@H]2C(=O)N[C@@H](Cc2cnc[nH]2)C(=O)N[C@@H](CC(C)C)C(=O)N2C[C@H](O)C[C@H]2C(=O)N[C@@H](Cc2c[nH]c3ccccc23)C(=O)N[C@@H](CO)C(=O)N[C@@H](Cc2csc3ccccc23)C(=O)N(C)[C@@H](CCSC)C(=O)N1C` (some centres unmarked) [Example 9025] ({CH2CO}-Y[NMeA]NPHL[Hyp]WS[Bta][NMeM][NMeNle]R[ξC]G-NH2; thioether N-14) are 0.158 to 4.71 nM and 0.385 to 6.74 nM.
